pIC50: −log10 of the molar value. Counter-ions that a name gives are not always drawn.
target: T1, human STING (hSTING) (Homo sapiens, UniProt Q86WV6); test: Inhibition test of intracellular human STING (hSTING) pathway using SEAP reporter cells (HEK-Blue ISG), stimulation with Compound 3; type: cell-based; parameters: hSTING inhibitory activity: scale not given here; settings: Compound 3 10 nM stimulation, 21 hours
T1 construct: host or cells: HEK-Blue ISG cells (HEK293-derived SEAP reporter line)
T1 sequence (Q86WV6 whole entry H232R): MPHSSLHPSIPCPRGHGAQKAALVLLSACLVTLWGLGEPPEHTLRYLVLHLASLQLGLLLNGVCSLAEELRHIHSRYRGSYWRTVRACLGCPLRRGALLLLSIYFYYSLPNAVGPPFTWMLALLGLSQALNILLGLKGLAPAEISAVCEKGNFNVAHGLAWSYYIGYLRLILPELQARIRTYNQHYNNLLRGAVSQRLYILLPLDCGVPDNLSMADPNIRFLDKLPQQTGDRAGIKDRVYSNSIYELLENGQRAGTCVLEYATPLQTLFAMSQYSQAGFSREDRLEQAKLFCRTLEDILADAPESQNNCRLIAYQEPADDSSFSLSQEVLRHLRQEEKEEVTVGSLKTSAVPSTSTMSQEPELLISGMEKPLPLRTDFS
Experimental: Inhibition test of intracellular human STING (hSTING) pathway using reporter cells
Since STING activates the transcription factor IRF3 upon ligand stimulation, the activity of STING can be evaluated by a reporter assay using a secretory alkaline phosphatase (SEAP reporter) integrated downstream of an IRF-inducible promoter.
That is, the hSTING inhibitory activity of the test compound was evaluated using HEK-Blue™MISG cells (manufactured by Invivogen, #hkb-isg-1) incorporating a SEAP reporter. Activation of hSTING was performed by stimulation with the small molecule ligand Compound 3 as described in the literature (Ramanjulu, J. M., et al., Nature. 2018, 564 (7736), 439-443). HEK-Blue™MISG cells were seeded in a 96-well plate and cultured overnight at 37° C. in a 5% CO2 incubator. To each well of this cell culture plate, a test compound solution adjusted to a final concentration of 0.1 to 10 µM of the test compound was added, cultured for 1 hour in a CO2 incubator, and then Compound 3 (final concentration 10 nM) was added and further cultured in a CO2 incubator for 21 hours. After collecting the culture supernatant of each well, the reporter activity was measured by color development reaction with alkaline phosphatase.
The reporter activity of the test compound non-addition and Compound 3 addition group was set to 100%, and the reporter activity of the test compound non-addition and Compound 3 non-addition group was set to 0%. The IC50 value was determined by regression analysis of the inhibitory rate determined from the reporter activity at each compound concentration and the test compound concentration (logarithm).

| Structure (SMILES) | hSTING inhibitory activity |
| --- | --- |
| Clc1ccc2[nH]cc(Nc3nc4cc(-c5cccc(CN6CCOCC6)c5)ccc4[nH]3)c2n1 [Embodiment 99, N-(5-Chloro-1H-pyrrolo[3,2-b]pyridin-3-yl)-5-[3-(morpholinomethyl)phenyl]-1H-benzo[d] imidazol-2-amine] | * * |
| Clc1ccc2[nH]cc(Nc3nc4cc(C5=CCOCC5)ccc4[nH]3)c2n1 [Embodiment 105, N-(5-chloro-1H-pyrrolo[3,2-b]pyridin-3-yl)-5-(3,6-dihydro-2H-pyran-4-yl)-1H-benzo[d] imidazol-2-amine] | * * |
| ClC(=CC1CC1)c1ccc2[nH]c(Nc3c[nH]c4ccc(Cl)nc34)nc2c1 [Embodiment 126, N-(5-chloro-1H-pyrrolo[3,2-b]pyridin-3-yl)-5-(1-chloro-2-cyclopropylvinyl)-1H-benzo[d] imidazole-2-amine] | * * |
| CC=C(Cl)c1ccc2[nH]c(Nc3c[nH]c4ccc(Cl)nc34)nc2c1 [Embodiment 137, N-(5-Chloro-1H-pyrrolo[3,2-b]pyridin-3-yl)-5-(1-chloroprop-1-en-1-yl)-1H-benzo[d]imidazole-2-amine] | * * * |
| C1=C(c2ccnc3c(Nc4nc5cc(Oc6ccccc6)ccc5[nH]4)c[nH]c23)CCCC1 [Embodiment 162, N-[7-(Cyclohex-1-en-1-yl)-1H-pyrrolo[3,2-b]pyridin-3-yl]-5-phenoxy-1H-benzo[d]imidazole-2-amine] | * * |

same assay, conditions: Compound 3 10 nM stimulation, 21 hours, read-out: hSTING inhibitory activity

| Structure (SMILES) | pIC50 |
| --- | --- |
| Cn1cc(-c2ccc3[nH]c(Nc4c[nH]c5ccc(Cl)nc45)nc3c2)cn1 [Embodiment 102, N-(5-chloro-1H-pyrrolo[3,2-b]pyridin-3-yl)-5-(1-methyl-1H-pyrazol-4-yl)-1H-benzo[d]imidazole-2-amine] | ≤ 5.00 |
| C[Si](C)(C)C#Cc1ccc2[nH]cc(Nc3nc4cc(Oc5ccccc5)ccc4[nH]3)c2n1 [Embodiment 106, 5-phenoxy-N-{5-[(trimethylsilyl)ethynyl]-1H-pyrrolo[3,2-b]pyridin-3-yl}-1H-benzo[d]imidazol-2-amine] | 5.00 to 6.00 |
| Cc1cnc2[nH]cc(Nc3nc4cc(Oc5ccccc5)ccc4[nH]3)c2c1 [Embodiment 107, N-(5-methyl-1H-pyrrolo[2,3-b]pyridin-3-yl)-5-phenoxy-1H-benzo[d]imidazol-2-amine] | ≤ 5.00 |
| COCCn1c(Nc2c[nH]c3ccc(Cl)nc23)nc2cc(Cl)c(Cl)cc21 [Embodiment 110, 5,6-dichloro-N-(5-chloro-1H-pyrrolo[3,2-b]pyridin-3-yl)-1-(2-methoxyethyl)-1H-benzo[d] imidazole-2-amine] | 5.00 to 6.00 |
| N#Cc1cccc2[nH]c(Nc3c[nH]c4ccc(Cl)nc34)nc12 [Embodiment 113, 2-[(5-Chloro-1H-pyrrolo[3,2-b]pyridin-3-yl)amino]-1H-benzo [d]imidazole-4-carbonitrile] | ≤ 5.00 |
| CN1CCC(Oc2ccc3[nH]c(Nc4c[nH]c5ccc(Cl)nc45)nc3c2)CC1 [Embodiment 121, N-(5-Chloro-1H-pyrrolo[3,2-b]pyridin-3-yl)-5-[(1-methylpiveridin-4-yl)oxy]-1H-benzo[d]imidazole-2-amine] | 5.00 to 6.00 |
| CN(C)C(=O)c1cccc2c(Nc3nc4cc(Oc5ccccc5)ccc4[nH]3)c[nH]c12 [Embodiment 122, N,N-dimethyl-3-[(5-phenoxy-1H-benzo[d]imidazol-2-yl)amino]-1H-indole-7-carboxamide formate] | 5.00 to 6.00 |
| CC(C)n1c(Nc2c[nH]c3ccc(Cl)nc23)nc2cc(Cl)c(Cl)cc21 [Embodiment 132, 5,6-dichloro-N-(5-chloro-1H-pyrrolo[3,2-b]pyridin-3-yl)-1-isopropyl-1H-benzo[d]imidazol-2-amine] | 5.00 to 6.00 |
| CN(C)CCn1c(Nc2c[nH]c3ccc(Cl)nc23)nc2ccc(Oc3ccccc3)cc21 [Embodiment 134, N-(5-Chloro-1H-pyrrolo[3,2-b]pyridin-3-yl)-1-[2-(dimethylamino)ethyl]-6-phenoxy-1H-benzo[d] imidazole-2-amine diformate] | ≤ 5.00 |
| Clc1ccc2[nH]cc(Nc3nc4c5c(ccc4[nH]3)OCCO5)c2n1 [Embodiment 135, N-(5-chloro-1H-pyrrolo[3,2-b]pyridin-3-yl)-7,8-dihydro-3H-[1,4] dioxino[2′,3′:3, 4]benzo[1,2-d]imidazol-2-amine] | ≤ 5.00 |
| Cn1c(Nc2c[nH]c3ccc(Cl)nc23)nc2cc(F)c(F)cc21 [Embodiment 138, N-(5-Chloro-1H-pyrrolo[3,2-b]pyridin-3-yl)-5,6-difluoro-1-methyl-1H-benzo[d]imidazol-2-amine] | ≤ 5.00 |
| Clc1ccc2[nH]cc(Nc3nc4cc(OC5COC5)ccc4[nH]3)c2n1 [Embodiment 139, N-(5-Chloro-1H-pyrrolo[3,2-b]pyridin-3-yl)-5-(oxetan-3-yloxy)-1H-benzo[d]imidazol-2-amine] | ≤ 5.00 |
| COCCOc1ccc2[nH]c(Nc3c[nH]c4ccc(Cl)nc34)nc2c1 [Embodiment 140, N-(5-Chloro-1H-pyrrolo[3,2-b]pyridin-3-yl)-5-(2-methoxyethoxy)-1H-benzo[d]imidazol-2-amine] | ≤ 5.00 |
| Clc1ccc2[nH]cc(Nc3nc4cc5c(cc4[nH]3)OCCO5)c2n1 [Embodiment 141, N-(5-chloro-1H-pyrrolo[3,2-b]pyridin-3-yl)-6,7-dihydro-1H-[1,4] dioxino[2′,3′:4, 5]benzo[1,2-d]imidazol-2-amine] | 5.00 to 6.00 |
| Clc1ccc2[nH]cc(Nc3nc4cc(OC5CCOCC5)ccc4[nH]3)c2n1 [Embodiment 142, N-(5-Chloro-1H-pyrrolo[3,2-b]pyridin-3-yl)-5-[(tetrahydro-2H-pyran-4-yl)oxy)-1H-benzo[d] imidazol-2-amine] | ≤ 5.00 |
| COCCOc1cc2nc(Nc3c[nH]c4ccc(Cl)nc34)[nH]c2cc1OCCOC [Embodiment 143, N-(5-Chloro-1H-pyrrolo[3,2-b]pyridin-3-yl)-5,6-bis(2-methoxyethoxy)-1H-benzo[d]imidazol-2-amine] | ≤ 5.00 |
| CN(C)CC#Cc1ccc2[nH]c(Nc3c[nH]c4ccc(Cl)nc34)nc2c1 [Embodiment 146, N-(5-Chloro-1H-pyrrolo[3,2-b]pyridin-3-yl)-5-[3-(dimethylamino)prop-1-yn-1-yl]-1H-benzo[d] Imidazol-2-amine] | ≤ 5.00 |
| Clc1ccc2[nH]cc(Nc3nc4c(-c5cccnc5)cccc4[nH]3)c2n1 [Embodiment 147, N-(5-Chloro-1H-pyrrolo[3,2-b]pyridin-3-yl)-4-(pyridin-3-yl)-1H-benzo[d]imidazol-2-amine] | ≤ 5.00 |
| Clc1ccc2[nH]cc(Nc3nc4c(-c5ccncc5)cccc4[nH]3)c2n1 [Embodiment 148, N-(5-Chloro-1H-pyrrolo[3,2-b]pyridin-3-yl)-4-(pyridin-4-yl)-1H-benzo[d]imidazol-2-amine] | ≤ 5.00 |
| Clc1ccc2[nH]cc(Nc3nc4c(C5CCOCC5)cccc4[nH]3)c2n1 [Embodiment 150, N-(5-chloro-1H-pyrrolo[3,2-b]pyridin-3-yl)-4-(tetrahydro-2H-pyran-4-yl)-1H-benzo[d]imidazole-2-amine] | ≤ 5.00 |
| Cc1ccc2nc(Nc3c[nH]c4ccc(Cl)nc34)n(C)c2c1 [Embodiment 152, N-(5-Chloro-1H-pyrrolo[3,2-b]pyridin-3-yl)-1,6-dimethyl-1H-benzo [d]imidazol-2-amine] | ≤ 5.00 |
| Cn1c(Nc2c[nH]c3ccc(Cl)nc23)nc2cc(C3CCOCC3)ccc21 [Embodiment 153, N-(5-chloro-1H-pyrrolo[3,2-b]pyridin-3-yl)-1-methyl-5-(tetrahydro-2H-pyran-4-yl)-1H-benzo[d] imidazol-2-amine] | ≤ 5.00 |
| Cn1c(Nc2c[nH]c3ccc(Cl)nc23)nc2ccc(C3CCOCC3)cc21 [Embodiment 154, N-(5-chloro-1H-pyrrolo[3,2-b]pyridin-3-yl)-1-methyl-6-(tetrahydro-2H-pyran-4-yl)-1H-benzo[d] imidazol-2-amine] | ≤ 5.00 |
| Cn1c(Nc2c[nH]c3ccc(Cl)nc23)nc2c(F)cccc21 [Embodiment 155, N-(5-Chloro-1H-pyrrolo[3,2-b]pyridin-3-yl)-4-fluoro-1-methyl-1H-benzo[d]imidazol-2-amine] | ≤ 5.00 |
| Cc1ccc2c(c1)nc(Nc1c[nH]c3ccc(Cl)nc13)n2C [Embodiment 156, N-(5-Chloro-1H-pyrrolo[3,2-b]pyridin-3-yl)-1,5-dimethyl-1H-benzo [d]imidazol-2-amine] | ≤ 5.00 |
| COc1ccc2nc(Nc3c[nH]c4ccc(Cl)nc34)n(C)c2c1 [Embodiment 161, N-(5-Chloro-1H-pyrrolo[3,2-b]pyridin-3-yl)-6-methoxy-1-methyl-1H-benzo[d]imidazol-2-amine] | ≤ 5.00 |
| c1ccc(Oc2ccc3[nH]c(Nc4c[nH]c5c(-c6ccncc6)ccnc45)nc3c2)cc1 [Embodiment 163, 5-phenoxy-N-[7-(pyridin-4-yl)-1H-pyrrolo[3,2-b]pyridin-3-yl]-1H-benzo[d]imidazol-2-amine] | ≤ 5.00 |
| c1ccc(Oc2ccc3[nH]c(Nc4c[nH]c5c(-c6cccnc6)ccnc45)nc3c2)cc1 [Embodiment 164, 5-phenoxy-N-[7-(pyridin-3-yl)-1H-pyrrolo[3,2-b]pyridin-3-yl]-1H-benzo[d]imidazol-2-amine] | 5.00 to 6.00 |

Reference: patent publication US20240279205A1, “NOVEL BENZIMIDAZOLE DERIVATIVE” (Carna Biosciences, Inc., priority 2020, published 2024)
